Laboratory results: the NIST ThermoML archive (doi:10.1021/je101199g)
Numbers after ± are expanded uncertainties.

conditions: Crystal

Q: For CCCCCCCCCCCCO [dodecan-1-ol], which Normal melting temperature is on record?
A: 23.36 ± 0.62 °C

Q: With Cc1ncc[nH]1 [2-methylimidazole] as the compound, how does the Normal melting temperature read?
A: 146.23 ± 1.2 °C

Q: With O=C(Oc1ccccc1)Oc1ccccc1 [diphenyl carbonate] as the compound, how does the Normal melting temperature read?
A: 80.81 ± 1.2 °C

Q: With COC(=O)OC [dimethyl carbonate] as the compound, how does the Normal melting temperature read?
A: 5.01 ± 0.62 °C
